From patent publication US20240287065A1, “COMPOUND AS CDK KINASE INHIBITOR AND USE THEREOF” (TYK MEDICINES (ZHENGZHOU) , INC., priority 2021, published 2024)

Key:
HCC1806 cells = assay: Cell proliferation inhibition assay (MTT, 7 days); assay type: cell-based; conditions: Homo sapiens, HCC1806, 168 h, HCC1086 [sic], 7 days incubation
Protocol: (§1) MCF7, T47D, OVCAR3 and HCC1806 cells were inoculated in 96-well plates at 3000, 3000, 2500, and 2000 cells/well, respectively, and cultured overnight at 37° C., 5% C02 incubator.
(§2) 1. […] Then 2.5 μl of the stock solution was dissolved in 497.5 μl of DMSO-free medium, and then a 3-fold serial gradient dilution was performed with 0.1% DMSO medium for a total of 9 concentrations, and the concentrations of the compounds after dilution were as follows: • 10000 nM, 3333.33 nM, 1111.11 nM, 370.34 nM, 123.45 nM, 41.15 nM, 13.72 nM, 4.57 nM, and 1.52 nM. • b) After fully mixing, 20 μL of compound solutions were added into cell culture plates containing 80 μL of cells respectively, with 4 replicate wells for each concentration. • c) The cells were transferred to an incubator and incubated for 7 days, and exchanged with fresh culture medium containing the same concentration of compounds when incubated to day 4. 2. MTT assay • a) The cell culture plate was taken out and 10 μL of 5 mg/ml MTT was added to the hood. • b) The cell culture plate was put back into the incubator and continued to incubate for 3 hours. • c) The cell culture plate was taken out to remove the culture medium, and 100 μL of isopropanol (0.4 mMHCl, 0.4% NP40) was added to the plate, and the plate was shaken on a shaker at room temperature for 30 minutes and read at 570 nm. 3. Data analysis
(§3) The survival rate (% Cell Survival) was calculated using the following equation:
(§4) % Cell Survival=100%×(OD_Sample−OD_LCave)/(OD_HC−OD_LCave) • OD_HC: 0.1‰ cell readings of DMSO control • OD_Sample: cell readings of compound addition • OD_LC: readings of blank medium • Analyed by Prizm: Dose-response-Inhibition Log(inhibitor) vs response (three parameters for the best fit)
(§5) IC50 (nM) values were calculated by concentration-response curve fitting.

OVCAR3 cells = assay: Cell proliferation inhibition assay (MTT, 7 days); assay type: cell-based; conditions: Homo sapiens, OVCAR-3, 168 h, 7 days incubation
Protocol: as §1, §2, §3, §4, §5

T47D cells = assay: Cell proliferation inhibition assay (MTT, 7 days); assay type: cell-based; conditions: Homo sapiens, 168 h, 7 days incubation
Protocol: as §1, §2, §3, §4, §5

MCF7 cells = assay: Cell proliferation inhibition assay (MTT, 7 days); assay type: cell-based; conditions: Homo sapiens, 168 h, 7 days incubation
Protocol: as §1, §2, §3, §4, §5

CDK6/CycD1 = CDK6/CycD1 (Homo sapiens, UniProt Q00534); assay: Enzyme activity test; assay type: biochemical;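 further: values come from the source column headed CDK6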
Protocol: (§6) • 1. The test compounds and pabocinib were configured into a […] solution of DMSO; • 2. 20 nL of stock solution was transferred to a 384-well plate using Echo550. DMSO was used as a blank control.
(§7) • 1. according to the following table to prepare 1.3X enzyme solution containing enzyme, substrate and cofactor; • 2. 15 μL of 1.3X enzyme solution was added to each well and the mixture was incubated for 30 min at room temperature; • 3. 5 μL of ATP solution was added to initiate the reaction. The final volume of each well was 20 μL; • 4. After incubation for 150 min at room temperature, 75 μL of termination buffer solution was added to terminate the experiment; • 5. The samples were analyzed using EZ reader.
(§8) The % inhibition was calculated using the following equation
(§9) The one treated with DMSO is the positive control (PC)
(§10) The one without enzyme is the negative control (NC)
(§11) % Inhibition=100-100*((CRPC−CRsample)/(CRPC−CRNC))

CDK2/CycE1 = CDK2/CycE1 (Homo sapiens, UniProt P24941); assay: Enzyme activity test; assay type: biochemical;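 further: values come from the source column headed CDK2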
Protocol: as §6, §7, §8, §9, §10, §11

CDK4/CycD3 = CDK4/CycD3 (Homo sapiens, UniProt P11802); assay: Enzyme activity test; assay type: biochemical;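 further: values come from the source column headed CDK4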
Protocol: as §6, §7, §8, §9, §10, §11

Sequence of CDK4/CycD3 (P11802 whole entry, species assumed): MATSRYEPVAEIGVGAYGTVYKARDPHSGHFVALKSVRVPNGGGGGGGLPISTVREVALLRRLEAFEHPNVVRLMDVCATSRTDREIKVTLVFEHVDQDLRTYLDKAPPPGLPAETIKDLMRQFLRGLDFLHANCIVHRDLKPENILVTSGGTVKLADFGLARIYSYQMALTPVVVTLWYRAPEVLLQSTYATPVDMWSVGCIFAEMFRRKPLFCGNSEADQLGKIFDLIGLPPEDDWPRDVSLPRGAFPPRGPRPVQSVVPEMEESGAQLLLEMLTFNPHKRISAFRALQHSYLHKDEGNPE
Sequence of CDK4/CycD3 (P30281 whole entry partner, species assumed): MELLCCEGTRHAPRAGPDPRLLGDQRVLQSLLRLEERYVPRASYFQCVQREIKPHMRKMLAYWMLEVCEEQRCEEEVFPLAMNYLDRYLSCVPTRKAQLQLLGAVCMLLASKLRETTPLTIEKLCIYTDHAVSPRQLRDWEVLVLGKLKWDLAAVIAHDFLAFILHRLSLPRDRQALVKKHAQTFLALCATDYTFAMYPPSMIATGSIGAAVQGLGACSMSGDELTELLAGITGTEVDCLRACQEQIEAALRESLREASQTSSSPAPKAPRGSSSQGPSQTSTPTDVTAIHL
Sequence of CDK6/CycD1 (Q00534 whole entry, species assumed): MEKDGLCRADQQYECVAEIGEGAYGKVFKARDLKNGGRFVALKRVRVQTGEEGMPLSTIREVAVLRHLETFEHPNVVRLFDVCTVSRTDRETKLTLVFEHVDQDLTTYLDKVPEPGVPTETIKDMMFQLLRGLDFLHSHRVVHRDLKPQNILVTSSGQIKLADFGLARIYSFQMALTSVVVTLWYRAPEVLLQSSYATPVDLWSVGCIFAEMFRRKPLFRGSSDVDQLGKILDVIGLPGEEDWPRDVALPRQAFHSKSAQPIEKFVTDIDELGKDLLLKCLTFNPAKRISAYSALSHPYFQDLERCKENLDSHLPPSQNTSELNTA
Sequence of CDK6/CycD1 (P24385 whole entry partner, species assumed): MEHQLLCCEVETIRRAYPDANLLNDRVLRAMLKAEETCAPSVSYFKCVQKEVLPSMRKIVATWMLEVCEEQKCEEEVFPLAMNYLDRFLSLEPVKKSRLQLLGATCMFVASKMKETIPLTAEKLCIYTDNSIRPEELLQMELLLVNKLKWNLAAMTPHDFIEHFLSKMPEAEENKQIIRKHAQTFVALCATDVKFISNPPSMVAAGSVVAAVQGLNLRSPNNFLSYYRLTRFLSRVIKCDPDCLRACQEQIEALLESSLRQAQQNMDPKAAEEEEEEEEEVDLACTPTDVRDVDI

Row | SMILES | IC50 (HCC1806 cells) [nM] | IC50 (OVCAR3 cells) [nM] | IC50 (T47D cells) [nM] | IC50 (MCF7 cells) [nM] | IC50 (CDK6/CycD1) [nM] | IC50 (CDK2/CycE1) [nM] | IC50 (CDK4/CycD3) [nM]
1 | Cc1ccc(S(=O)(=O)N2CCC(Nc3ncc4cc(OC(F)F)c(=O)n([C@@H]5CCC[C@@]5(C)O)c4n3)CC2)cc1 [Example 8] | 50 to 5200 | ≤ 50 | ≤ 50 | 50 to 5200 | < 10 | < 10 | 10 to 100
2 | C[C@@]1(O)CCC[C@H]1n1c(=O)c(OC(F)F)cc2cnc(NC3CCN(S(=O)(=O)c4ccccc4C#N)CC3)nc21 [Example 9] | 50 to 5200 | ≤ 50 | 50 to 5200 | 50 to 5200 | < 10 | < 10 | < 10
3 | COc1cccc(S(=O)(=O)N2CCC(Nc3ncc4cc(OC(F)F)c(=O)n([C@@H]5CCC[C@@]5(C)O)c4n3)CC2)c1 [Example 10] | 50 to 5200 | ≤ 50 | ≤ 50 | 50 to 5200 | < 10 | < 10 | < 10
4 | COc1ccccc1S(=O)(=O)N1CCC(Nc2ncc3cc(OC(F)F)c(=O)n([C@@H]4CCC[C@@]4(C)O)c3n2)CC1 [Example 14] | 50 to 5200 | 50 to 5200 | ≤ 50 | 50 to 5200 | < 10 | < 10 | 10 to 100
5 | C[C@@]1(O)CCC[C@H]1n1c(=O)c(OC(F)F)cc2cnc(NC3CCN(S(=O)(=O)c4ccccc4)CC3)nc21 [Example 16] | ≤ 50 | ≤ 50 | ≤ 50 | ≤ 50 | < 10 | < 10 | < 10
6 | C[C@@]1(O)CCC[C@H]1n1c(=O)c(OC(F)F)cc2cnc(NC3CCN(S(=O)(=O)c4cccc(F)c4)CC3)nc21 [Example 17] | ≤ 50 | ≤ 50 | ≤ 50 | ≤ 50 | < 10 | < 10 | < 10
7 | C[C@@]1(O)CCC[C@H]1n1c(=O)c(OC(F)F)cc2cnc(NC3CCN(S(=O)(=O)c4ccc(F)c(F)c4)CC3)nc21 [Example 18] | ≤ 50 | ≤ 50 | ≤ 50 | 50 to 5200 | < 10 | < 10 | < 10
8 | CN(C)c1ccc(S(=O)(=O)N2CCC(Nc3ncc4cc(OC(F)F)c(=O)n([C@@H]5CCC[C@@]5(C)O)c4n3)CC2)cc1 [Example 22] | 50 to 5200 | ≤ 50 | ≤ 50 | 50 to 5200 | < 10 | < 10 | 10 to 100
9 | COc1ccc(S(=O)(=O)N2CCC(Nc3ncc4cc(OC(F)F)c(=O)n([C@@H]5CCC[C@@]5(C)O)c4n3)CC2)cc1 [Example 24] | ≤ 50 | ≤ 50 | ≤ 50 | ≤ 50 | < 10 | < 10 | < 10
10 | C[C@@]1(O)CCC[C@H]1n1c(=O)c(OC(F)F)cc2cnc(NC3CCN(S(=O)(=O)c4ccccc4F)CC3)nc21 [Example 25] | 50 to 5200 | ≤ 50 | ≤ 50 | 50 to 5200 | < 10 | < 10 | 10 to 100
11 | C[C@@]1(O)CCC[C@H]1n1c(=O)c(OC(F)F)cc2cnc(NC3CCN(S(=O)(=O)c4cccnc4)CC3)nc21 [Example 51] | 50 to 5200 | ≤ 50 | ≤ 50 | ≤ 50 | < 10 | < 10 | < 10
12 | C[C@@]1(O)CCC[C@H]1n1c(=O)c(OC(F)F)cc2cnc(Nc3ccc4c(c3)CN(S(C)(=O)=O)C4)nc21 [Example 64] | 50 to 5200 | ≤ 50 | ≤ 50 | 50 to 5200 | < 10 | < 10 | 10 to 100
13 | CC(C)(O)Cn1cc(S(=O)(=O)N2CCC(Nc3ncc4cc(OC(F)F)c(=O)n([C@@H]5CCC[C@@]5(C)O)c4n3)CC2)cn1 [Example 75] | 50 to 5200 | ≤ 50 | ≤ 50 | ≤ 50 | < 10 | < 10 | 10 to 100

The remaining lines, values ahead:

Row | IC50 (HCC1806 cells) [nM] | IC50 (OVCAR3 cells) [nM] | IC50 (T47D cells) [nM] | IC50 (MCF7 cells) [nM] | IC50 (CDK6/CycD1) [nM] | IC50 (CDK2/CycE1) [nM] | IC50 (CDK4/CycD3) [nM] | SMILES
14 | ≤ 50 | ≤ 50 | ≤ 50 | ≤ 50 | < 10 | < 10 | < 10 | C[C@@]1(O)CCC[C@H]1n1c(=O)c(OC(F)F)cc2cnc(NC3CCN(S(=O)(=O)c4ccc(C#N)cc4)CC3)nc21 [Example 6]
15 | 50 to 5200 | 50 to 5200 | ≤ 50 | 50 to 5200 | < 10 | < 10 | < 10 | C[C@@]1(O)CCC[C@H]1n1c(=O)c(OC(F)F)cc2cnc(NC3CCN(S(=O)(=O)c4ccc(F)cc4F)CC3)nc21 [Example 7]
16 | ≤ 50 | ≤ 50 | ≤ 50 | ≤ 50 | < 10 | < 10 | < 10 | C[C@@]1(O)CCC[C@H]1n1c(=O)c(OC(F)F)cc2cnc(NC3CCN(S(=O)(=O)c4ccc(S(C)(=O)=O)cc4)CC3)nc21 [Example 11]
17 | 50 to 5200 | 50 to 5200 | 50 to 5200 | 50 to 5200 | < 10 | < 10 | < 10 | C[C@@]1(O)CCC[C@H]1n1c(=O)c(OC(F)F)cc2cnc(NC3CCN(S(=O)(=O)c4cc(F)cc(F)c4)CC3)nc21 [Example 15]
18 | 200 to 51000 | 50 to 5200 | 50 to 5200 | 50 to 5200 | 10 to 100 | < 10 | 10 to 100 | CC(C)(C)c1ccc(S(=O)(=O)N2CCC(Nc3ncc4cc(OC(F)F)c(=O)n([C@@H]5CCC[C@@]5(C)O)c4n3)CC2)cc1 [Example 23]
19 | 50 to 5200 | 50 to 5200 | ≤ 50 | 50 to 5200 | < 10 | < 10 | 10 to 100 | C[C@@]1(O)CCC[C@H]1n1c(=O)c(OC(F)F)cc2cnc(NC3CCN(S(=O)(=O)c4cc(F)ccc4F)CC3)nc21 [Example 26]
20 | 200 to 51000 | 50 to 5200 | 50 to 5200 | 50 to 5200 | < 10 | < 10 | 10 to 100 | CCCc1ccc(S(=O)(=O)N2CCC(Nc3ncc4cc(OC(F)F)c(=O)n([C@@H]5CCC[C@@]5(C)O)c4n3)CC2)cc1 [Example 28]
